As a reminder, the IC50 is the concentration at which inhibition is half-maximal.

In patent publication US20190071416A1, “COMPOUNDS FOR TREATMENT OF CANCER AND EPIGENETICS” (Agency For Science, Technology and Research, priority 2015, published 2019) one finds IC50 data, which are given here for 25 compounds.

The assay has as its target T1, SMYD3 (Homo sapiens, UniProt Q9H7B4).
T1 sequence (Q9H7B4 1-428): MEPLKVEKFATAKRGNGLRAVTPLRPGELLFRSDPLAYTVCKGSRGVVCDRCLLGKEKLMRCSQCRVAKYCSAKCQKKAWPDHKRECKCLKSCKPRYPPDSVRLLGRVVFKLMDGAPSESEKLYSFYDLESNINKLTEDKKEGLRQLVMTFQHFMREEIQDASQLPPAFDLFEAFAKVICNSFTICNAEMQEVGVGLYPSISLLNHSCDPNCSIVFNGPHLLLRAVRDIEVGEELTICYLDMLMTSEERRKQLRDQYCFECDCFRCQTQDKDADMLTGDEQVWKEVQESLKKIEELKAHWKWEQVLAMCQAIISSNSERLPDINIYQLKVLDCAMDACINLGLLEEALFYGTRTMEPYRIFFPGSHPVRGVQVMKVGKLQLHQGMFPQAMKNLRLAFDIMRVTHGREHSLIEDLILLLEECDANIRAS
As to the kind of experiment: SMYD3 biochemical assay (MTase-Glo, MAP3K2 peptide substrate). The settings on record: Table 3; MTase assay, MAP3K2 peptide substrate; read-out: IC50. Put shortly: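 Methylation of MAP3K2 peptide (10 µM final) with SAM (1.0 µM final) by SMYD3, 30 min at room temperature. SAH formed was enzymatically converted to ATP and detected as luminescence with MTase-Glo reagents; IC50 by non-linear regression.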
Regarding `CCCOC(=O)N1CCN(C(=O)c2ccc3c(Cl)cc(-c4cc[nH]c4)nc3c2)CC1` [B209, Propyl 4-(4-chloro-2-(1H-pyrrol-3-yl)quinoline-7-carbonyl)piperazine-1-carboxylate], the half-maximal inhibitory concentration (IC50) is 190 nM.

As for `CCCOC(=O)N1CCN(C(=O)c2ccc3c(Cl)cc(-c4ccc(C(=O)NC5CC5)cc4)nc3c2)CC1` [B210, Propyl 4-(4-chloro-2-(4-(cyclopropylcarbamoyl)phenyl)quinoline-7-carbonyl)piperazine-1-carboxylate], the IC50 was found to be 26 nM.

On to `CCCOC(=O)N1CCN(C(=O)c2ccc3c(Cl)cc(-c4ccc5[nH]cc(C)c5c4)nc3c2)CC1` [B211, Propyl 4-(4-chloro-2-(3-methyl-1H-indol-5-yl)quinoline-7-carbonyl)piperazine-1-carboxylate], for which the IC50 was determined as 1010 nM.

`CCCOC(=O)N1CCN(C(=O)c2ccc3c(Cl)cc(-c4ccc5nc(C)oc5c4)nc3c2)CC1` [B212, Propyl 4-(4-chloro-2-(2-methylbenzo[d]oxazol-6-yl)quinoline-7-carbonyl)piperazine-1-carboxylate]: the IC50 came to 240 nM.

For `CCCOC(=O)N1CCN(C(=O)c2ccc3c(Cl)cc(-c4ccc5ocnc5c4)nc3c2)CC1` [B213, Propyl 4-(2-(benzo[d]oxazol-5-yl)-4-chloroquinoline-7-carbonyl)piperazine-1-carboxylate], the IC50 came to 330 nM.

Take `CCCOC(=O)N1CCN(C(=O)c2ccc3c(Cl)cc(-c4cc(C)n(C)c4C)nc3c2)CC1` [B214, Propyl 4-(4-chloro-2-(1,2,5-trimethyl-1H-pyrrol-3-yl)quinoline-7-carbonyl)piperazine-1-carboxylate]: the IC50 came out at 120 nM.

As for `CCCOC(=O)N1CCN(C(=O)c2ccc3c(Cl)cc(-c4cnn(C)c4)nc3c2)C[C@H]1C` [B215, Propyl (R)-4-(4-chloro-2-(1-methyl-1H-pyrazol-4-yl)quinoline-7-carbonyl)-2-methylpiperazine-1-carboxylate], the half-maximal inhibitory concentration (IC50) was 110 nM.

With `CCCOC(=O)N1CCN(C(=O)c2ccc3c(Cl)cc(-c4ccc(C(=O)NC)c(F)c4)nc3c2)C[C@H]1C` [B216, Propyl (R)-4-(4-chloro-2-(3-fluoro-4-(methylcarbamoyl)phenyl)quinoline-7-carbonyl)-2-methylpiperazine-1-carboxylate], the IC50 was found to be 230 nM.

With `CCCOC(=O)N1CCN(C(=O)c2ccc3c(Cl)cc(-c4cc(F)c(O)c(F)c4)nc3c2)C[C@H]1C` [B217, Propyl (R)-4-(4-chloro-2-(3,5-difluoro-4-hydroxyphenyl)quinoline-7-carbonyl)-2-methylpiperazine-1-carboxylate], the IC50 is 130 nM.

With `CCCOC(=O)N1CCN(C(=O)c2ccc3c(Cl)cc(-c4ccc(O)c(C)c4)nc3c2)C[C@H]1C` [B218, Propyl (R)-4-(4-chloro-2-(4-hydroxy-3-methylphenyl)quinoline-7-carbonyl)-2-methylpiperazine-1-carboxylate], the IC50 stood at 220 nM.

As for `CCCOC(=O)N1CCN(C(=O)c2ccc3c(Cl)cc(-c4cnn(C)c4)nc3c2)[C@@H](C)C1` [B219, Propyl (S)-4-(4-chloro-2-(1-methyl-1H-pyrazol-4-yl)quinoline-7-carbonyl)-3-methylpiperazine-1-carboxylate], the IC50 is 230 nM.

As to `CCCOC(=O)N1CCN(C(=O)c2ccc3c(Cl)cc(-c4cc(F)c(O)c(F)c4)nc3c2)[C@@H](C)C1` [B220, Propyl (S)-4-(4-chloro-2-(3,5-difluoro-4-hydroxyphenyl)quinoline-7-carbonyl)-3-methylpiperazine-1-carboxylate], the IC50 amounted to 350 nM.

Take `CCCOC(=O)N1CCN(C(=O)c2ccc3c(Cl)cc(-c4ccnc5[nH]ccc45)nc3c2)CC1` [B221, Propyl 4-(4-chloro-2-(1H-pyrrolo[2,3-b]pyridin-4-yl)quinoline-7-carbonyl)piperazine-1-carboxylate]: the IC50 amounted to 800 nM.

With `CCCOC(=O)N1CCN(C(=O)c2ccc3c(Cl)cc(-c4ccc5[nH]c(C)nc5c4)nc3c2)CC1` [B222, Propyl 4-(4-chloro-2-(2-methyl-1H-benzo[d]imidazol-5-yl)quinoline-7-carbonyl)piperazine-1-carboxylate], the IC50 came out at 46 nM.

For `CCCOC(=O)N1CCN(C(=O)c2ccc3c(Cl)cc(-c4ccc(COCCOC)cc4)nc3c2)CC1` [B224, Propyl 4-(4-chloro-2-(4-((2-methoxyethoxy)methyl)phenyl)quinoline-7-carbonyl)piperazine-1-carboxylate], the IC50 came out at 800 nM.

Turning to `CCCOC(=O)N1CCN(C(=O)c2ccc3c(Cl)cc(-c4ccc(O)c(C)c4)nc3c2)[C@@H](C)C1` [B225, Propyl (S)-4-(4-chloro-2-(4-hydroxy-3-methylphenyl)quinoline-7-carbonyl)-3-methylpiperazine-1-carboxylate], the IC50 came to 230 nM.

As to `CCCCC(=O)N1CCN(C(=O)c2ccc3c(Cl)ccnc3c2)CC1` [B226, 1-(4-(4-chloroquinoline-7-carbonyl)piperazin-1-yl)pentan-1-one], the IC50 is 7900 nM.

As for `CCCOC(=O)N1CCN(C(=O)c2ccc3c(Cl)cc(-c4cc(C)n(C)c4CN)nc3c2)CC1` [B227, Propyl 4-(2-(2-(aminomethyl)-1,5-dimethyl-1H-pyrrol-3-yl)-4-chloroquinoline-7-carbonyl)piperazine-1-carboxylate], the 50% inhibitory concentration (IC50) was found to be 770 nM.

`CCCOC(=O)N1CCN(C(=O)c2ccc3c(Cl)cc(-c4ccn(C(=O)OC)c4)nc3c2)CC1` [B228, Propyl 4-(4-chloro-2-(1-(methoxycarbonyl)-1H-pyrrol-3-yl)quinoline-7-carbonyl)piperazine-1-carboxylate]: the IC50 came out at 300 nM.

On to `CCCOC(=O)N1CCN(C(=O)c2ccc3c(Cl)cc(-c4cnn(C(C)C)c4)nc3c2)CC1` [B229, Propyl 4-(4-chloro-2-(1-isopropyl-1H-pyrazol-4-yl)quinoline-7-carbonyl)piperazine-1-carboxylate], for which the IC50 came to 1100 nM.

For the compound `CCCOC(=O)N1CCN(C(=O)c2ccc3c(Cl)cc(-c4cnn(C(F)F)c4)nc3c2)CC1` [B230, Propyl 4-(4-chloro-2-(1-(difluoromethyl)-1H-pyrazol-4-yl)quinoline-7-carbonyl)piperazine-1-carboxylate], the IC50 was 700 nM.

Regarding `CCCOC(=O)N1CCN(C(=O)c2ccc3c(Cl)cc(-c4ccn(S(=O)(=O)N(C)C)c4)nc3c2)CC1` [B231, Propyl 4-(4-chloro-2-(1-(N,N-dimethylsulfamoyl)-1H-pyrrol-3-yl)quinoline-7-carbonyl)piperazine-1-carboxylate], the half-maximal inhibitory concentration (IC50) amounted to 630 nM.

In the case of `CCCOC(=O)N1CCN(C(=O)c2ccc3c(Cl)cc(-c4ccc5c(c4)CNC5=O)nc3c2)CC1` [B232, Propyl 4-(4-chloro-2-(1-oxoisoindolin-5-yl)quinoline-7-carbonyl)piperazine-1-carboxylate], the IC50 is 150 nM.

Consider `CNC(=O)c1ccc(-c2cc(Cl)c3ccc(C(=O)N4CCN(C(=O)OCCCF)[C@H](C)C4)cc3n2)cc1` [B233, 3-Fluoropropyl (R)-4-(4-chloro-2-(4-(methylcarbamoyl)phenyl)quinoline-7-carbonyl)-2-methylpiperazine-1-carboxylate], for which the IC50 was 160 nM.

Turning to `C[C@@H]1CN(C(=O)c2ccc3c(Cl)cc(-c4ccn(C)c4)nc3c2)CCN1C(=O)OCCCF` [B234, 3-Fluoropropyl (R)-4-(4-chloro-2-(1-methyl-1H-pyrrol-3-yl)quinoline-7-carbonyl)-2-methylpiperazine-1-carboxylate], the half-inhibitory concentration (IC50) is 98 nM.
